Source: US10564164B2, “Fluorescent probe, singlet oxygen detection agent, and singlet oxygen detection method” (Osaka University, priority 2014, dated 2020)

Columns and labels:
HeLa cells = assay: Selectivity of photosensitizer: intracellular singlet oxygen detection with Si-DMA; assay type: cell-based; conditions: 25 nM Si-DMA, 640 nm, 0.6 W/cm2
Protocol: Subsequently, a quick protocol provided by Molecular Probe® for introducing CellROX Green was followed. Using diluted Si-DMA and Si-Me, incubation was performed for 30 minutes to two hours by an experiment. To introduce a photosensitizer, 150 μg/mL of 5-aminolevulinic acid (5-ALA) or 10 LM TMPyP4 were incubated for four hours and 24 hours, respectively. As a result, as previously reported, the conversion of 5-ALA into protoporphyrin IX (PpIX) in the mitochondria was confirmed by the fluorescence luminescence of PpIX.
A KillerRed vector was expressed in accordance with a general Lipofectamine® 2000 (Invitrogen) protocol. More specifically, 2×10^5 Hela cells were subcultured in a 35-mm glass bottom dish. The cells reached about 50% confluent in the next day.
Subsequently, a mixed solution of Lipofectamine reagent and DNA vector was obtained by mixing 6 μL Lipofectamine® 2000 with 7 μL pKillerRed-dMitovector ([…], Evrogen, catalog No. FP964) in an Opti-MEM solution (Gibco). Thereafter, the resulting solution was incubated for 20 minutes at room temperature. 300 μL of the mixed solution was added to a growth medium, and incubated for 24 hours. The expression of KillerRed was confirmed by monitoring KillerRed fluorescence using a wide-view microscope. […]
Further, on the night before the treatment, 0.2×10^6 HeLa cells were seeded on a 35-mm dish, and pKillerRed-dMito vector (Evrogen) was introduced using Lipofectaimine®2000 (Invitrogen®), followed by 24-hour incubation as described above, thereby preparing HeLa cells containing […]. […] Light irradiation was performed for 30 seconds simultaneously at 0.5 W/cm^2 and 0.6 W/cm^2 using a 640-/532-nm laser (Coherent) and a wide-view fluorescence microscope system mounted in an IX81 inverted microscope (Olympus Corporation). […]
Further, in this Experiment Example, 60-second light irradiation was performed using three kinds of photosensitizers, and an average number of pseudo colors appeared in the photo and an increase thereof were measured. […]

[1] = Fluorescence change after singlet oxygen generated chemically by NaOCl and H2O2; assay type: physicochemical; conditions: for fluorescence depending on concentration of singlet oxygen: NaClO and H2O2, DMSO:methanol:tris buffer 1:49:50, 5 μM
Protocol: Further, singlet oxygen was introduced into Si-DMA using a chemical catalyst. More specifically, singlet oxygen was introduced using 10 mM NaOCl and 10 mM H2O2. In this case as well, a spectral change similar to that in FIG. 1 was observed. […] The black arrow in FIG. 4a) and the red arrow in FIG. 4b) respectively show a loss of the anthracene structure, and an increase in the fluorescence of Si-DMA. The fluorescence increased about 10 times by 10-minute incubation using NaOCl and H2O2. By introducing a greater amount of singlet oxygen, more Si-DMA is expected to change into Si-DMEP.
The measurement was performed by generating singlet oxygen using NaClO and H2O2 in a solution containing DMSO:methanol:tris buffer agent=1:49:50 (Si-DMA concentration=5 μM).

[2] = Selectivity test against various reactive oxygen species; assay type: physicochemical; conditions: 5 μM in methanol:PBS pH 7.4 1:1, 10 minutes in dark
Protocol: A test was performed to confirm whether Si-DMA of Example 1 causes no self-oxidation of dye and is selectively responsive to singlet oxygen.
However, formation of aggregates decreases the effective concentration of the dye, thereby decreasing the reaction speed of Si-DMA. Therefore, a 5-μM Si-DMA solution was first prepared using a mixed solvent containing methanol and a pH 7.4 PBS buffer solution mixed at 1:1. In this solution, Si-DMA was present as a monomer. Subsequently, 10-mM solutions of various reactive oxygen species (ROS)(^1O2, O2.^−, H2O2, HOCl, ROO., and .OH) were prepared by adding the following additives to the 5-μM Si-DMA solution obtained above.
5. ROO.: 10 mM 2,2-azobis(2-amidinopropane)dihydrochloride
Under intense magnetic stirring, each Si-DMA solution containing reactive oxygen species (ROS) was stored for 10 minutes in a dark room. […]

[3] = Fluorescence quantum yield in various solvents in the absence of singlet oxygen; assay type: physicochemical
Protocol: Further, in the in vitro measurement, unless otherwise specified, all bulk spectrum measurements were performed in a phosphate buffered saline (PBS) having a pH of 7.5 without Ca and Mg or spectral grade methanol. The absorption spectrum and fluorescence spectrum in the ground state were measured using the Shimadzu UV-3100 and Horiba FluoroMax-4, respectively. The bulk irradiation was performed using a xenon light source (LAX-C100, Asahi Spectra Co., Ltd.) and a wavelength filter (BA510-550, Olympus Corporation).
As is clear from the above, fluorescence was hardly observed in the absence of singlet oxygen, (Φfl=0.01; in methanol), and the excitation of silicon-rhodamine was cancelled due to photoinduced electron transfer caused by the anthracene structure. The fluorescence in the absence of singlet oxygen also depended on the type of solvent. The fluorescence intensity decreases when a polar solvent is used, thereby inhibiting erroneous signals.

## Cc1c2ccccc2c(C)c2cc(C3=C4C=CC(=[N+](C)C)C=C4[Si](C)(C)c4cc(N(C)C)ccc43)ccc12 [Si-DMA]
HeLa cells; HeLa cells with PpIX (150 μg/mL 5-aminolevulinic acid, 4 h)
  time to increase in fluorescence in the vicinity of the perinuclear region: ≤ 10 s
HeLa cells; HeLa cells with PpIX as photosensitizer
  color rendering: clear color rendering was accomplished
[1]; 10 mM NaOCl and 10 mM H2O2, 10-minute incubation
  increase of fluorescence: about 10 times
[1]; aggregate
  fluorescence depending on concentration of singlet oxygen: increase in fluorescence in proportion to the concentration of singlet oxygen
[1]; monomer
  fluorescence depending on concentration of singlet oxygen: increase in fluorescence in proportion to the concentration of singlet oxygen
[2]; other reactive oxygen species (O2.-, H2O2, HOCl, ROO., .OH)
  fluorescence intensity in the presence of reactive oxygen species: no increase in fluorescence was observed
[2]; singlet oxygen (10 mM NaOCl and 10 mM H2O2)
  fluorescence intensity in the presence of reactive oxygen species: significantly increased
[3]; in DMSO
  Φfl (fluorescence quantum yield): 0.008
[3]; in acetone
  Φfl (fluorescence quantum yield): 0.010
[3]; in benzene
  Φfl (fluorescence quantum yield): 0.034
[3]; in chloroform
  Φfl (fluorescence quantum yield): 0.010
[3]; in methanol
  Φfl (fluorescence quantum yield): 0.01
[3]; in toluene
  Φfl (fluorescence quantum yield): 0.030
